# Measurements from EP0655460B1, “Pharmacotherapeutical use of glutathione derivatives” (Ohlenschläger, Gerhard, Dr. med., priority 1987, dated 1989).
# Read-outs that look alike come from different tables or passages of the source.
# Experiments:
# Redoxstatus des Blutes [1] = conditions: Kaninchen, Ohrvenenblut, 10 mg/kg intravenös, 5 - 10 Minuten after application, after load, n = 30, mean ± SD
# Procedure: Bei 5 verschiedenen Kaninchen wurden in 30 Versuchen im venösen Blut folgende Parameter nach der Methode und mit dem gerät VINCENT gemessen: • Ohm'scher Widerstand: r • Redoxpotential EH bzw. Elektronenpotential: rH2 • pH-Wert: pH.
# Die Werte wurden im Ohrvenenblut nach definierter Sauerstoffmangel-Belastung gemessen.
# Danach wurde den Tieren reduziertes Glutathion in einer Dosis von 10 mg/kg Körpergewicht intravenös verabreicht.
# 5 - 10 Minuten nach der Applikation von reduziertem Glutathion wurden folgende Werte ermittelt:
# Randbedingungen: Temperatur 20°C, Luftdruck 767 mm Hg.
# [2] = cited from earlier work
# [3] = Toxicity of the therapeutic dosage in small animals; type: in vivo; conditions: small animals such as Graumäusen, Wistar-Ratten und Kaninchen; therapeutic dosage (2 - 5 mg/kg for man)
# Procedure: Die therapeutische Dosierung, die sich im Tierversuch an Kleintieren wie Graumäusen, Wistar-Ratten und Kaninchen als untoxisch erwiesen hat, liegt für den Menschen in einem Bereich von 2 - 5 mg/kg Körpergewicht für eine Einzeldosis bei langsamer intravenöser Injektion, wobei das Injektionsvolumen 5 ml beträgt mit einem Gehalt an reduziertem Glutathion von 150 mg.
# [4] = tested on: malignen Melanoms vom Menschen; conditions: 300 mg three times weekly
# Procedure: 2.4) Versuch an 40 gesunden Graumäusen nach Transplantation eines malignen Melanoms vom Menschen.
# 40 gesunden Graumäusen wurden je 10^6 maligne Melanomzellen überimpft.
# 30 Tiere wurden vom Beginn der Versuchsreihe an drei mal wöchentlich mit je 300 mg reduziertem Glutathion behandelt.
# [5] = tested on: malignen Melanoms vom Menschen; conditions: 4 mice, 10^6 melanoma cells, 250 mg three times weekly
# From the text: 2.3) Versuch an 8 gesunden Graumäusen nach Transplantation eines malignen Melanoms vom Menschen.
# In Fig. 1 ist das Wachstum des Tumors in Abhängigkeit von der Zeit dargestellt.
# Redoxstatus des Blutes [6] = conditions: human venous blood, 600 mg langsam intravenös, 10 Minuten after application, after load, n = 50, mean ± SD
# Procedure: 2.2) Selbstversuch am Menschen zur Verbesserung und/oder zur Normalisierung des Redorstatus des Blutes:
# Im menschlichen Venenblut wurden nach definierter Sauerstoff-Mangel-Belastung die gleichen Parameter bestimmt wie im vorstehend gegchilderten Versuch. Insgesamt wurden 50 Versuche an verschiedenen Tagen durchgeführt.
# Danach wurde-reduziertes Glutathion in einer Dosis von 600 mg langsam intravenös verabreicht.
# Randbedingungen: Temperatur 20°C, Luftdruck 758 - 770 mm Hg.
# [7] = cited from earlier work; remark: listed apart in the source
# [8] = cited from earlier work; remark: listed apart in the source
# [9] = tested on: Glukose-6-Phosphat-Dehydrogenase; conditions: same conditions as 1.1 (0,5 mg, 37°C, 30 Minuten); n = 22, mean ± SD; Leerwert 148 ± 22
# Procedure: (§1) Von 20 Patienten mit unterschiedlichen Erkrankungen wurden jeweils 10 ml menschlichen Venenblutes entnommen und dessen Gerinnungsfähigkeit durch Zusatz von Heparin aufgehoben. Als Parameter für die optimale Erythrozytenfunktion wurde vor und nach der Inkubation mit 0,5 mg reduziertem Glutathion bei 37°C während eines Zeitraumes von 30 Minuten der Gehalt an intraerythrozytärem reduziertem Glutathion bestimmt.
# (§2) 1.2) In-vitro-Versuch an Zellensystemen menschlicher Erythrozyten:
# (§3) Unter denselben Bedingungen wie bei vorstehend beschriebenem Versuch wurden die Enzyme Glukose-6-Phosphat-Dehydrogenase und Glutathion-Reduktase aus Erythrozyten von 22 Patienten in vitro untersucht.
# Glutathion-Reduktase = Glutathion-Reduktase (Homo sapiens, UniProt P00390); conditions: same conditions as 1.1 (0,5 mg, 37°C, 30 Minuten); n = 22, mean ± SD; Leerwert 9,5 ± 0,8
# Procedure: as §1, §2, §3
# [10] = 30 treated mice, 10^6 melanoma cells
# Chain of Glutathion-Reduktase (P00390 44-522): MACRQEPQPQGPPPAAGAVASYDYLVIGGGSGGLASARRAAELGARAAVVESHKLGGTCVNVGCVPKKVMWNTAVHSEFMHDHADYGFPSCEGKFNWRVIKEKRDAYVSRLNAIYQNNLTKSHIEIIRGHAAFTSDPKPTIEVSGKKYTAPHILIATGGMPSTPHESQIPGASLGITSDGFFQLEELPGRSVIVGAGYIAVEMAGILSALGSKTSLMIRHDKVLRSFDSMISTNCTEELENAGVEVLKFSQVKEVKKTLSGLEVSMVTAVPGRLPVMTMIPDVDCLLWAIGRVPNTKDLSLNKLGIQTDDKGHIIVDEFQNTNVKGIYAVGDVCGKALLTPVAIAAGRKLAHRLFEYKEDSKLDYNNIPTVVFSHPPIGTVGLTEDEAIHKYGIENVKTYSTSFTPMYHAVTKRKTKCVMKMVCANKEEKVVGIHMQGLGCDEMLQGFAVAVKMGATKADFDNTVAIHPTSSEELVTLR
structure (smiles),measurement,setting,value
"N[C@@H](CCC(=O)N[C@@H](CS)C(=O)NCC(=O)O)C(=O)O [reduziertes Glutathion, gamma-Glutamyl-cysteinyl-glycin]",pH-Wert,"Redoxstatus des Blutes [1]; without: 7,38 ± 0,21","pH = 7,15 ± 0,16"
same,Ohm'scher Widerstand r,Redoxstatus des Blutes [1]; without: 199 ± 12,r = 202 ± 14 Ohm/cm^3
same,biologische Halbwertszeit in der Augenlinse,[2]; human tissue: Augenlinse,ca. 30 Std.
same,biologische Halbwertszeit im Erythrozyten,[2]; human tissue: Erythrozyten,ca. 100 Std.
same,biologische Halbwertszeit im Gehirn,[2]; human tissue: Gehirn,ca. 70 Std.
same,biologische Halbwertszeit in der Leber,[2]; human tissue: Leber,ca. 4 Std.
same,Toxizität der therapeutischen Dosierung im Tierversuch,[3],untoxisch
same,weitere gestorbene Tiere innerhalb 20 Tagen,[4]; [10],fünf
same,weitere gestorbene Tiere innerhalb 30 Tagen,[4]; [10],sieben
same,gestorbene Tiere innerhalb 15 Tagen,"[4]; 30 treated mice, 10^6 melanoma cells, controls died within 8 - 12 Tagen",drei
same,"Anteil überlebender behandelter Tiere, 30 Tage Beobachtungszeitraum",[4]; of 30 treated mice,50%
same,"überlebende Tiere, 30 Tage Beobachtungszeitraum",[4]; of 30 treated mice,15 Tiere
same,Überleben,[5]; controls died within 8 - 14 Tagen,überlebten bis zur siebten Woche
same,Tumorwachstum,[5]; versus untreated controls,deutlich langsameres Tumorwachstum
same,pH-Wert,"Redoxstatus des Blutes [6]; without: 7,41 ± 0,18","pH = 7,23 ± 0,11"
same,Ohm'scher Widerstand r,"Redoxstatus des Blutes [6]; without: 197 ± 14,5","r = 204 ± 12,3 Ohm/cm^3"
same,Löslichkeit in Wasser,[7]; Wasser,leicht löslich
same,Löslichkeit in physiologischer Kochsalzlösung,[7]; physiologischer Kochsalzlösung,leicht löslich
same,Löslichkeit in Äthanol,[7]; Äthanol,löslich
same,pK-Wert COOH(1),[8]; COOH(1),"3,53"
same,pK-Wert COOH(2),[8]; COOH(2),"2,12"
same,pK-Wert NH3 ^+,[8]; NH3 ^+,"8,66"
same,pK-Wert SH,[8]; SH,"9,66"
same,"Glukose-6-Phosphat-Dehydrogenase, Werte nach Inkubation",[9],179 ± 16 mU/ 10^9 Erys.
same,"Glutathion-Reduktase, Werte nach Inkubation",Glutathion-Reduktase,"11,3 ± 1,2 U/ 10^11 Erys."
